The text below walks through data of ChEMBL document CHEMBL5252667, “Discovery and Optimization of a Novel Macrocyclic Amidinourea Series Active as Acidic Mammalian Chitinase Inhibitors” (ACS Med Chem Lett, 2023).

Converted amounts (≈) assume the structure as drawn.

Series [1] has as its target T1, Chitotriosidase-1 (Homo sapiens, UniProt Q13231). In words: Inhibition of human CHIT1 using 4-methylumbelliferyl-beta-D-N,N',N''-triacetylchitotriose as substrate assessed as substrate hydrolysis by measuring inhibition constant preincubated with compound for 20 mins and measured immediately after substrate addition by fluorescence based assay relative to control.
Target sequence in this assay (Q13231 whole entry): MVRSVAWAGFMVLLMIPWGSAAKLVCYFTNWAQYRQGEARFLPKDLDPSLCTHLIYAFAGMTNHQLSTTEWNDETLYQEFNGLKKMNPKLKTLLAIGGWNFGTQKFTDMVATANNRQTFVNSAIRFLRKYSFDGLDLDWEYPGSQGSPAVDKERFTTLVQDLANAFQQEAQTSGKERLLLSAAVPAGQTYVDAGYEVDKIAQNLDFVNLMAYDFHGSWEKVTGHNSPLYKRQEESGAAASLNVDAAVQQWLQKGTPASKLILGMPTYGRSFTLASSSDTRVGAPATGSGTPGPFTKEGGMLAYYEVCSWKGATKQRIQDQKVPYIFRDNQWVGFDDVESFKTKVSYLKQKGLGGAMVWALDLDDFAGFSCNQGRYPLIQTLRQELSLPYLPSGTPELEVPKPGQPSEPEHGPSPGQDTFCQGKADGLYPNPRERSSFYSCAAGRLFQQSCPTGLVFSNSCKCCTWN

Series [2] can be described thus: Aqueous solubility of the compound by HPLC-UV/MS analysis. The format is physicochemical. The note with it: water (aqueous).
The nature of series [3]: Apparent permeability of compound in phosphate buffer by PAMPA assay. Type of series: ADME. On the technique in general: The PAMPA barrier holds no transporters, so it reflects passive diffusion.
The nature of series [4]: Metabolic stability in human liver microsomes assessed as parent compound remaining in the presence of NADPH generating system by HPLC-UVMS analysis. Type of series: ADME, Microsome. In general terms: Liver microsomes are a subcellular fraction often used to study metabolism.
The next series relates to Candida. In words: Antifungal activity against Candida spp. The format is functional.
Series [5] has as its target Acidic mammalian chitinase (Homo sapiens, UniProt Q9BZP6). In words: Inhibition of human AMCase using 4-methylumbelliferyl-beta-D-N,N',N''-triacetylchitotriose as substrate assessed as substrate hydrolysis by measuring inhibition constant preincubated with compound for 20 mins and measured immediately after substrate addition by fluorescence based assay.
Series [6] deals with T1, Chitotriosidase-1. As to the kind of experiment: Inhibition of human CHIT1 using 4-methylumbelliferyl-beta-D-N,N',N''-triacetylchitotriose as substrate assessed as substrate hydrolysis at 10 uM preincubated with compound for 20 mins and measured immediately after substrate addition by fluorescence based assay relative to control.
Target sequence in this assay (Q13231 22-466 limits assumed): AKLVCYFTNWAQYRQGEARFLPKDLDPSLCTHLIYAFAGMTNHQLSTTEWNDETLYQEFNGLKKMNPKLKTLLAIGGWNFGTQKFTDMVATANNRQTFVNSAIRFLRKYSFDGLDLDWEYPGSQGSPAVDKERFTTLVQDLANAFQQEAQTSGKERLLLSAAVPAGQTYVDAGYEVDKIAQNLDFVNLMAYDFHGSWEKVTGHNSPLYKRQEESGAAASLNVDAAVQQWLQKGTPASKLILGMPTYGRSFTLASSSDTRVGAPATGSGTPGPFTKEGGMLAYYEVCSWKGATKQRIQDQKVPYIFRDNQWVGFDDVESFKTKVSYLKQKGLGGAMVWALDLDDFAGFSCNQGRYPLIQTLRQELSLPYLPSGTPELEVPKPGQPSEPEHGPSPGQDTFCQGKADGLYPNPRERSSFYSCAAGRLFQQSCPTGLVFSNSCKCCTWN

Chain of Acidic mammalian chitinase (Q9BZP6 whole entry): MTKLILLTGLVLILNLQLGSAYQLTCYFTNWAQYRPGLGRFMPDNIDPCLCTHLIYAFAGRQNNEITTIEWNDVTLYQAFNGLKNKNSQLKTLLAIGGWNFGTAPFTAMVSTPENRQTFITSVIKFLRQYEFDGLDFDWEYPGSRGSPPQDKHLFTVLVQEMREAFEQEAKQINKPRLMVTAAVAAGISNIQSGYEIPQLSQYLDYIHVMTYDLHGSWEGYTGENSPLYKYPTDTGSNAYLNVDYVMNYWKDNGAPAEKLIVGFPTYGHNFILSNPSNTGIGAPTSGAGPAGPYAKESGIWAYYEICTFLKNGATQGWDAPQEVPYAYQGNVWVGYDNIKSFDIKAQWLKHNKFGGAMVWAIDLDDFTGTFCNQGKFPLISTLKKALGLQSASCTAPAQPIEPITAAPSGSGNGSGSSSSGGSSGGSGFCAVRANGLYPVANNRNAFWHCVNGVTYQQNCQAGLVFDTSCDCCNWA

As a reminder, the Ki is the dissociation constant of the complex between target and ligand, obtained from inhibition or displacement. In the case of `CNC(=O)NC(=N)NCCCCCCCCN1CCCCCCCCNC(=N)NC1=O`, on Chitotriosidase-1 [1], the Ki was greater than 50 µM. The term solubility denotes the concentration that dissolves in the medium under given conditions. Higher therefore signals a readily soluble substance. A word on the Papp: it is the rate of passage across a membrane or cell layer, normalised by area and donor concentration. `CNC(=O)NC(=N)NCCCCCCCCN1CCCc2ccc(F)cc2COc2ccccc2CNC(=N)NC1=O` came in with a solubility in series [2] of 2850 µg/mL (≈ 4.9 mM). For the same molecule, the apparent permeability (Papp) in series [3] was less than 0.5 ×10⁻⁶ cm/s. For the same molecule, the Stability in series [4] was 98.5%. For orientation: MIC means the smallest concentration in the dilution series that meets the test's criterion for growth inhibition. The low end stands for greater potency, the high end for weaker potency. On to `C/C=C/CNC(=N)NCCCCCCCCN1CCCCCCCCNC(=N)NC1=O`, for which the minimal inhibitory concentration (MIC) against Candida came to 1 µg/mL (≈ 0.0023 mM). `CNC(=O)NC(=N)NCCCCCCCCN1CCCc2ccccc2COc2cc(C)ccc2CNC(=N)NC1=O`: at Chitotriosidase-1 [1], the inhibition constant Ki was greater than 50 µM. Turning to `C/C=C/CNC(=N)NCCCCCCCCN1CCCc2ccccc2COc2ccccc2CNC(=N)NC1=O`, the MIC against Candida is 1 µg/mL (≈ 0.00178 mM).

In turn, `CNC(=O)NC(=N)NCCCCCCCCN1CCCc2ccccc2COc2ccccc2CNC(=N)NC1=O` showed a solubility in series [2] of 2010 µg/mL (≈ 3.57 mM). For the same molecule, in series [3], the apparent permeability coefficient (Papp) is less than 0.5 ×10⁻⁶ cm/s. Further, the Stability in series [4] is 76.2%.

As to `CNC(=O)NC(=N)NCCCCCCCCN1CCCc2ccccc2COc2cc(Cl)ccc2CNC(=N)NC1=O`, the Ki at Chitotriosidase-1 [1] is greater than 50 µM. In series [2], `CNC(=O)NC(=N)NCCCCCCCCN1CCCc2ccccc2COc2ccc(OC)cc2CNC(=N)NC1=O` returned a solubility of 3080 µg/mL (≈ 5.17 mM). In addition, the Papp in series [3] was less than 0.5 ×10⁻⁶ cm/s. The Stability in series [4] came out at 98.7%. The molecule `C/C=C/CNC(=N)NCCCCCCCCN1CCCCCCOc2ccccc2CNC(=N)NC1=O` had an MIC in the series with Candida of 1 µg/mL (≈ 0.00195 mM). Regarding `CNC(=O)NC(=N)NCCCCCCCCN1CCCCCOc2ccccc2CNC(=N)NC1=O`, in series [2], the solubility was found to be 1810 µg/mL (≈ 3.6 mM). Moreover, in series [3], the Papp is less than 0.5 ×10⁻⁶ cm/s. Also, the Stability in series [4] was found to be 80.9%.

Turning to `CNC(=O)NC(=N)NCCCCCCCCN1CCCc2ccc(OC(F)(F)F)cc2COc2ccccc2CNC(=N)NC1=O`, the Ki in series [5] is greater than 50 µM. On to `CNC(=S)NC(=N)NCCCCCCCCN1CCCCCCOc2ccccc2CNC(=N)NC1=O`, for which, on Chitotriosidase-1 [1], the inhibitory constant (Ki) is greater than 50 µM.

`CNC(=O)NC(=N)NCCCCCCCCN1CCCc2cc(Cl)ccc2COc2ccccc2CNC(=N)NC1=O` registered a solubility in series [2] of 23100 µg/mL (≈ 38.6 mM). For the same molecule, the Papp in series [3] is less than 0.5 ×10⁻⁶ cm/s. In addition, the Stability in series [4] was found to be 91.5%. The term inhibition denotes the percentage by which the read-out fell short of the control. As for `Cn1cnc2c1c(=O)n(CCCn1c(=O)c3nc[nH]c3n(C)c1=O)c(=O)n2C`, the Ki was found to be 0.26 µM in series [5] and 0.0014 µM at Chitotriosidase-1 [1]. The inhibition at Chitotriosidase-1 [6] was 98%.
